What was measured:
[1] = target: SRSF protein kinase 1 (Homo sapiens, UniProt Q96SB4); assay: Selectivity interaction (Kinase panel (KiNativ target engagement assay in Jurkat cells)) EUB0001635a SRPK1; format: cell-based; details: Selectivity number of off-targets 0.0, Selectivity number of targets 233.0, Source Knowledge https://www.sciencedirect.com/science/article/pii/S2451945619300674?via%3Dihub, at 1 µM
[2] = system: ALK tyrosine kinase receptor (Homo sapiens), Q9UM73 [C1156Y]; assay: (§1) Selectivity interaction (LanthaScreen Eu Kinase Binding Assay) EUB0001632a ALK; details: at 10 µM
[3] = system: ALK tyrosine kinase receptor (Homo sapiens), Q9UM73 [L1196M]; assay: as §1; details: at 10 µM
[4] = system: ALK tyrosine kinase receptor (Homo sapiens), Q9UM73 [R1275Q]; assay: as §1; details: at 10 µM
[5] = system: ALK tyrosine kinase receptor (Homo sapiens), Q9UM73 [F1174L]; assay: as §1; details: at 10 µM
[6] = target: Serine/threonine-protein kinase 26 (Homo sapiens, UniProt Q9P289)
[7] = target: T1, Serine/threonine-protein kinase LATS2 (Homo sapiens) (UniProt Q9NRM7); assay: Selectivity interaction (KinomeScan (DiscoverX)) EUB0000618a LATS2; details: at 10 µM
T1 sequence (whole entry): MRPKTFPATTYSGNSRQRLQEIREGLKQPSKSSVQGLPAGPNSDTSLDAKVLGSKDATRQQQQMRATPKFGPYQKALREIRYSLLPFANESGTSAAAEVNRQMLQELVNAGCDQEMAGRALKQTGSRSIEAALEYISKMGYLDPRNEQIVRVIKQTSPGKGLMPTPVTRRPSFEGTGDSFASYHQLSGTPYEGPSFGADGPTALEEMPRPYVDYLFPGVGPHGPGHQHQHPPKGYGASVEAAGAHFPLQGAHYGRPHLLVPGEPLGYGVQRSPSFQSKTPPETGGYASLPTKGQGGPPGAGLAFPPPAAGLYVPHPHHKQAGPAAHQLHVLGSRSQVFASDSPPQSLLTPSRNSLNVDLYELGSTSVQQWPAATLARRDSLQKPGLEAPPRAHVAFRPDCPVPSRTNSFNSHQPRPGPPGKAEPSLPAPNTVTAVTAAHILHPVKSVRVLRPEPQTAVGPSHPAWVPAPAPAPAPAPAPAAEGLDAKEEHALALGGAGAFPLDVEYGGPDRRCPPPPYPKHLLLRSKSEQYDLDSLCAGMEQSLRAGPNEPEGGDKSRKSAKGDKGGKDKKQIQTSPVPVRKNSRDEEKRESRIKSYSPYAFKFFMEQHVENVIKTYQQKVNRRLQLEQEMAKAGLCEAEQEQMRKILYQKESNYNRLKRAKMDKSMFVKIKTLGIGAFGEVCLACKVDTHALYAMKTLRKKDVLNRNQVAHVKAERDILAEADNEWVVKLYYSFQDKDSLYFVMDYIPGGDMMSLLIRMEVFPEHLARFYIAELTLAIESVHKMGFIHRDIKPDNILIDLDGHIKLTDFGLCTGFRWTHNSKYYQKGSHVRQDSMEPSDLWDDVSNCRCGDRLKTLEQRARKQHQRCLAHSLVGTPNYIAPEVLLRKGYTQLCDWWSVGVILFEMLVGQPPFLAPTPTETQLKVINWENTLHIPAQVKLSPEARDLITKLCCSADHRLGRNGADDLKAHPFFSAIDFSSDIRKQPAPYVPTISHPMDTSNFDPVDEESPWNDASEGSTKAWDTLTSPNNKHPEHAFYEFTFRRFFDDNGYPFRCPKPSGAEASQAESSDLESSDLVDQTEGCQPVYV

[8] = target: Tyrosine-protein kinase Fer (Homo sapiens) (UniProt P16591); assay: Selectivity interaction (Kinase panel (Invitrogen)) EUB0000639a FER; details: at 200 nM
[9] = target: Mitogen-activated protein kinase 14 (Homo sapiens, UniProt Q16539); assay: Selectivity interaction (ActivX KiNativ screen (kinase selectivity in THP-1 cell lysates)) EUB0000639a MAPK14; format: subcellular; details: lysate
Sequence of Mitogen-activated protein kinase 14 (Q16539 whole entry): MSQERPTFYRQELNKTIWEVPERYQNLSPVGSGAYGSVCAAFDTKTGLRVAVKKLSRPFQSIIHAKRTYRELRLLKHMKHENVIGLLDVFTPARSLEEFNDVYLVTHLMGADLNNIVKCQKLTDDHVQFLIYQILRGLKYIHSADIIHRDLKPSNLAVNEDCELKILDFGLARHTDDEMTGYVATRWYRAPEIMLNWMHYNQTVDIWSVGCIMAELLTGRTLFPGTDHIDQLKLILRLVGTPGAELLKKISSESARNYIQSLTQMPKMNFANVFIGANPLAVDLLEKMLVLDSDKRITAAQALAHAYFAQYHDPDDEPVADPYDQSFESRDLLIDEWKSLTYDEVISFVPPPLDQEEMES

Sequence of Serine/threonine-protein kinase 26 (Q9P289 whole entry): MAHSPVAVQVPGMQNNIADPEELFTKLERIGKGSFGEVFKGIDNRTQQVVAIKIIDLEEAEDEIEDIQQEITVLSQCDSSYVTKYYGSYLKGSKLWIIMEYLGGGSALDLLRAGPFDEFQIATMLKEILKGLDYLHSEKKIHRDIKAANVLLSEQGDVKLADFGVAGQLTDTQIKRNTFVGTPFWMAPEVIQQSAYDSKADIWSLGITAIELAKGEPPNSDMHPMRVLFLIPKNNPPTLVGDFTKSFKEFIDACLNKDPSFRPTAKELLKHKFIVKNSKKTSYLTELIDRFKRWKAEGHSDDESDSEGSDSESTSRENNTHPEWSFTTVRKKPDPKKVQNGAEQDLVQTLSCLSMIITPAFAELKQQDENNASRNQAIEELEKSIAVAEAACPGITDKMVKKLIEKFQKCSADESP
Sequence of Tyrosine-protein kinase Fer (Homo sapiens) (P16591 whole entry, looked up): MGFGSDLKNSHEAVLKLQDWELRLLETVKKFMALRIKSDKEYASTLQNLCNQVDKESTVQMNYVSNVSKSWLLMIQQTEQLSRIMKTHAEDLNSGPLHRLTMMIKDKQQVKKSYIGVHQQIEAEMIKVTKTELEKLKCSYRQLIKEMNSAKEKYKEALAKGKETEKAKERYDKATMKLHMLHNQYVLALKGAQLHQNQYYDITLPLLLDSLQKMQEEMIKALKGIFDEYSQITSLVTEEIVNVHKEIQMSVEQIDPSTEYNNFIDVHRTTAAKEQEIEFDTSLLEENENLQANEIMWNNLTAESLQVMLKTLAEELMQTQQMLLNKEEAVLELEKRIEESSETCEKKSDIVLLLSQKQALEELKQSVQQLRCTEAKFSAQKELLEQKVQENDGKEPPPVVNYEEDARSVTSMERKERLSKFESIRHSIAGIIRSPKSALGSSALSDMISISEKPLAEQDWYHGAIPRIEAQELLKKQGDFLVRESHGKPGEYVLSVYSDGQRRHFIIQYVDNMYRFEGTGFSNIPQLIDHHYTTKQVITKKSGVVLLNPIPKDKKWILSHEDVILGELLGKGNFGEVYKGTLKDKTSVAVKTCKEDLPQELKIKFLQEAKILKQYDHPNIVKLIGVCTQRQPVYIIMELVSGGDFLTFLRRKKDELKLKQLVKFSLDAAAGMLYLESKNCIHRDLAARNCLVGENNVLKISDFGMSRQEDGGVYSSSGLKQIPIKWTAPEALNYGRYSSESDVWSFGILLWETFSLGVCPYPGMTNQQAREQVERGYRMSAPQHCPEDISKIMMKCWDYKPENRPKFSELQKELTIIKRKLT
Sequence of ALK tyrosine kinase receptor (Homo sapiens), Q9UM73 [C1156Y] (Q9UM73 whole entry C1156Y, looked up): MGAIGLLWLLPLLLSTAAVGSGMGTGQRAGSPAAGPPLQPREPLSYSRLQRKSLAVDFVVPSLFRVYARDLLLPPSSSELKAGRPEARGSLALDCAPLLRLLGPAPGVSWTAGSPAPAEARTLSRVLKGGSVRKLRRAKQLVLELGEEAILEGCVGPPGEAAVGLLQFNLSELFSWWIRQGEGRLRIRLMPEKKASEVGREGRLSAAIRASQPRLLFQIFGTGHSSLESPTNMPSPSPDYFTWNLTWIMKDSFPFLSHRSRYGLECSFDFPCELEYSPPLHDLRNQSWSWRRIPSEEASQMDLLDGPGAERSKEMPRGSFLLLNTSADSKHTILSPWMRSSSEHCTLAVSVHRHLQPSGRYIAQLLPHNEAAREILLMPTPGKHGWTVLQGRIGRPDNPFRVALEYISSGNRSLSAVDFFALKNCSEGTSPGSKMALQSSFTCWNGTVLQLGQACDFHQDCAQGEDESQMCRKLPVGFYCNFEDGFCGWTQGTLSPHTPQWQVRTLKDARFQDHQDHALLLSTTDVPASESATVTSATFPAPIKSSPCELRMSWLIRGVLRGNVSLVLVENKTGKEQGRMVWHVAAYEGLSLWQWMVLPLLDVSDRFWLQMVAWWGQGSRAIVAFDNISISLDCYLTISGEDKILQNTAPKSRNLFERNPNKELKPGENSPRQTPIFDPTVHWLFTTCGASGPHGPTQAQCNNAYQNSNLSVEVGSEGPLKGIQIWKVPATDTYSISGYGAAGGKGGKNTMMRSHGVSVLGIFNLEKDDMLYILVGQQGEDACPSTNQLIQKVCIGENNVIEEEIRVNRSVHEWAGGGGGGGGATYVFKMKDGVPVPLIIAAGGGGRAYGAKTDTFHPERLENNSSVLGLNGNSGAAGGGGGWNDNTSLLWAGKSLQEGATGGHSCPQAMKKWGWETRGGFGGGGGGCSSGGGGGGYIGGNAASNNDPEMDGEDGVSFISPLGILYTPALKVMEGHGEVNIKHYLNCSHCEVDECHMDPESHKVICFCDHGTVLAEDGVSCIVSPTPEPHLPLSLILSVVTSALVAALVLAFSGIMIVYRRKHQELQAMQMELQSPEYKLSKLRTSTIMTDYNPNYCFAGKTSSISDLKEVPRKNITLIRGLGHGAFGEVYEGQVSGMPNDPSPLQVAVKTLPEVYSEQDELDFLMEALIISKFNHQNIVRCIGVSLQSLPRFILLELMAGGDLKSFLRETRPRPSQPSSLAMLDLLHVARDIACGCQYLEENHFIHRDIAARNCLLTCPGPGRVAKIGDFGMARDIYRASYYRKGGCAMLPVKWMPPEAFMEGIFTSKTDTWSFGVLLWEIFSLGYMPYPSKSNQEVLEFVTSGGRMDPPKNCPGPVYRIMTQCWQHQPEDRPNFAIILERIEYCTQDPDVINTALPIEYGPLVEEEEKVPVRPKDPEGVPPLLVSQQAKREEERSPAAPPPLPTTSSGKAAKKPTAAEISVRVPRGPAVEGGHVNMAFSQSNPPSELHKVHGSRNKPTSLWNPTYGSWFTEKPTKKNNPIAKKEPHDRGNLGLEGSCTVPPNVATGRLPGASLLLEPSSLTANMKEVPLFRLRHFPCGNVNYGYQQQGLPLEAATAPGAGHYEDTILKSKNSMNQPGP
Sequence of ALK tyrosine kinase receptor (Homo sapiens), Q9UM73 [R1275Q] (Q9UM73 whole entry R1275Q): as the sequence (Q9UM73 whole entry C1156Y, looked up) above, with Y1156C, R1275Q counted along it
Sequence of ALK tyrosine kinase receptor (Homo sapiens), Q9UM73 [F1174L] (Q9UM73 whole entry F1174L): as the sequence (Q9UM73 whole entry C1156Y, looked up) above, with Y1156C, F1174L counted along it
Sequence of ALK tyrosine kinase receptor (Homo sapiens), Q9UM73 [L1196M] (Q9UM73 whole entry L1196M, looked up): as the sequence (Q9UM73 whole entry C1156Y, looked up) above, with Y1156C, L1196M counted along it
Sequence of SRSF protein kinase 1 (Q96SB4 whole entry): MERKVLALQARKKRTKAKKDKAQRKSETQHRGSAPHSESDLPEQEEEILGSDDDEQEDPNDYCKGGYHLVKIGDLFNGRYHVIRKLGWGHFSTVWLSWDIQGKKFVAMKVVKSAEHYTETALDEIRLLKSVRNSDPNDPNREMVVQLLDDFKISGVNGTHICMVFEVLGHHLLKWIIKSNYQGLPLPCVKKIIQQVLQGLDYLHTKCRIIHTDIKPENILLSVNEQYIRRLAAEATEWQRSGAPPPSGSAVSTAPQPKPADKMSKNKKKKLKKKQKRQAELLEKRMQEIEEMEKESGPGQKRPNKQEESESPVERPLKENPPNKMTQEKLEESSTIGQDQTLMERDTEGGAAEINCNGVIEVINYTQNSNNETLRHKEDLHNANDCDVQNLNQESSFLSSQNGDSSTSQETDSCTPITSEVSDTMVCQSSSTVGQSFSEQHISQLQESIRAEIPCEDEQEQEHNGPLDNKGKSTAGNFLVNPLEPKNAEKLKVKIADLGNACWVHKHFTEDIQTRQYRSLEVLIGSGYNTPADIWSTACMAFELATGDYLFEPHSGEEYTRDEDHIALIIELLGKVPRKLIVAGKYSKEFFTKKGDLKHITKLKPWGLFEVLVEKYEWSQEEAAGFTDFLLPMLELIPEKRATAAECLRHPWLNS

SMILES: C=CC(=O)Nc1ccc(C(=O)Nc2[nH]nc3c2CN(C(=O)N[C@H](CN(C)C)c2ccccc2)C3(C)C)cc1
- % of engagement [1]: 6%

SMILES: Cn1cc(-n2cnc3c(NCc4nc5cc(Cl)c(Cl)cc5[nH]4)nc(N4CCOCC4)nc32)cn1
- % of inhibition [2]: -8.74%
- % of inhibition [3]: -25.5%
- % of inhibition [4]: -41.1%
- % of inhibition [5]: -19.4%

SMILES: CCc1cccc(CC)c1NC(=O)c1nn(C)c2c1CCc1cnc(Nc3ccc(C(=O)NC4CCN(C)CC4)cc3OC(F)(F)F)nc1-2
- IC50 [6]: > 10 µM

SMILES: O[C@H]1CC[C@H](Nc2ncc3nc(Nc4c(F)cc(F)cc4F)n([C@H]4CCOC4)c3n2)CC1
- % of control [7]: 88%

SMILES: CC[C@@H]1[C@H](F)C(=O)N[C@@H]1COc1nccc2cc(C(N)=O)c(OC)cc12 [ZIMLOVISERTIB]
- % of inhibition [8]: 9.46%
- % of inhibition ([9]; at 0.01 µM): 0.8%
- % of inhibition ([9]; at 0.04 µM): 1.1%
- % of inhibition ([9]; at 0.2 µM): 10.2%
- % of inhibition ([9]; at 1 µM): 10.6%
- % of inhibition ([9]; at 5 µM): 4.8%
